According to publication PMC9694897 (Metabolites, 2022):

Tests used:
[1] = DPPH free radical scavenging assay
Experimental: Free radicals and 1,1-diphenyl, 2-picrylhydrazyl (DPPH) were used for the illustration of the free radical scavenging ability of the molecule. This assay involved the addition of different dilutions (250, 500 and 1000 μg/mL) of this compound to 0.004% methanolic solution of DPPH. […] Ascorbic acid, in this case, was used as a positive control. The percent activity was calculated according to the formula.

[2] = ABTS free radical scavenging assay; conditions: read-out: ABTS IC50
Experimental: To determine the radical scavenging activity of the compound, we added 3.0 mL of ABTS solution to 300 mL of the compound in a cuvette. By spectrophotometer, we measured the absorbance reduction one minute after the mixing of the solution and continued measuring it for 6 min. For positive control, ascorbic acid is used. We then repeated the assay three times and calculated the percent of inhibition according to the formula [35].

[3] = tested on: carrageenan induced inflammation; assay: In-vivo carrageenan method of inflammation (paw edema); design: species or system Albino mice; conditions: flavone 10 mg/kg, aspirin 100 mg/kg
Excerpt: (§1) The Albino mice with an average body weight of 25–30 g were obtained from NIH, Islamabad, Pakistan from our designed studies. The animals were kept in the animal house of the university and were kept under controlled conditions as per the standard guidelines. The animals were used in experiments according to the standard protocols as per the approval of Departmental Ethical Committee with approval letter number DREC-140 [36].
The progression of inflammation stimulated by carrageenan is a biphasic system. In the initial phase the serotonin and histamine were released, while in the second phase of swelling prostaglandin, bradykinin, leukotriene and lysozyme were mediated. The non-steroidal and steroidal drugs can wield their function in the second phase of the edema formation.
In the assay, animals were randomly divided into three groups with eight in each group. The first group, Group I, was the negative control and was given dimethyformamide 1% 10 mL/kg bw. […] The third group (Group III) was given 10 mg/kg bw of the isolated flavone. After ½ h, 1% of the saline solution of carrageenan (w/v, 0.05 mL) was given in a sub-planter area of the animals. Afterwards, the paw edema was determined with the help of a plethysmometer (Model LE 7500 plan. Lab SL) with different time intervals. The paw edema of the mice administered with flavone, and with those of the standard drug, were measured at different time intervals. The measurements of paw edema were compared with the mice serving as the negative control group. The percent inhibition activity was calculated as per the standard procedure.

[4] = biological target: T1, eeAChE (Electrophorus electricus, UniProt O42275); assay: biochemical
T1 construct: the acetylcholinesterase enzymes used were obtained from an electric eel; from tissue; host or cells: electric eel
T1 sequence (O42275 24-633): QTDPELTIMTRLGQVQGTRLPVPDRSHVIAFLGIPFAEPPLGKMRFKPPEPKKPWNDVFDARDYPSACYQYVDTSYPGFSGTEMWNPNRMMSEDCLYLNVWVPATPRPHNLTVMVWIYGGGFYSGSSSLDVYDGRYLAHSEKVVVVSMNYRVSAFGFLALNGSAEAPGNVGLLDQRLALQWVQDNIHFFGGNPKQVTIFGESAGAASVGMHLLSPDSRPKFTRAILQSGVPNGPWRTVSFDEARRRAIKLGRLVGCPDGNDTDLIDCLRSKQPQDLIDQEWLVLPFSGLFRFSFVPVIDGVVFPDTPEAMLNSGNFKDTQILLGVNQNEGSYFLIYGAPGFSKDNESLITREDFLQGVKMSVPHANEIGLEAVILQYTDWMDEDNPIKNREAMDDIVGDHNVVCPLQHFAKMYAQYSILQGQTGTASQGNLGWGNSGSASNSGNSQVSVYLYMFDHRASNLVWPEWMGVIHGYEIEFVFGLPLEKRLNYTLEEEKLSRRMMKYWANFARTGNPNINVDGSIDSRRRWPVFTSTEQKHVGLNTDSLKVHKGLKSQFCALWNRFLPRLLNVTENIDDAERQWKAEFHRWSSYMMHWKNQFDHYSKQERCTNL
Excerpt: (§2) For the determination of anti-cholinesterase activity of the compounds, the acetylcholinesterase enzymes used were obtained from an electric eel. The butyrylcholinesterase (BChE) is obtained from equine serum. The principle of this assay is based on the hydrolysis of […] by the enzymes AChE and the hydrolysis of butyrylcholine iodide by the enzyme butyrylcholinesterase. This process of hydrolysis yields 5-thio-2-nitrobenzoate anion which then form a complex with DTNB (yellow color) which can be detected by spectrophotometer.
(§3) Then KOH was used for the adjustment of pH.
(§4) In each of these enzyme assays, the enzyme solution (5 μL) was added to the cuvette followed by the addition of the compound (205 μL), and finally DTNB reagents (5 μL) were added. The solution was maintained in a water bath at a temperature of 30 °C for 15 min, and then the substrate solution (5 μL) was added. […] The negative control consists of all the components except the compound. […] The absorbance, as well as the reaction time, were taken for 4 min at a temperature of 30 °C and were repeated in triplicate.

[5] = biological target: T2, eqBChE (Equus caballus, UniProt P81908); assay: Anti-cholinesterase assay (DTNB, spectrophotometric), BChE; assay type: biochemical, equine
T2 construct: The butyrylcholinesterase (BChE) is obtained from equine serum; from tissue; host or cells: equine serum
T2 sequence (P81908 whole entry): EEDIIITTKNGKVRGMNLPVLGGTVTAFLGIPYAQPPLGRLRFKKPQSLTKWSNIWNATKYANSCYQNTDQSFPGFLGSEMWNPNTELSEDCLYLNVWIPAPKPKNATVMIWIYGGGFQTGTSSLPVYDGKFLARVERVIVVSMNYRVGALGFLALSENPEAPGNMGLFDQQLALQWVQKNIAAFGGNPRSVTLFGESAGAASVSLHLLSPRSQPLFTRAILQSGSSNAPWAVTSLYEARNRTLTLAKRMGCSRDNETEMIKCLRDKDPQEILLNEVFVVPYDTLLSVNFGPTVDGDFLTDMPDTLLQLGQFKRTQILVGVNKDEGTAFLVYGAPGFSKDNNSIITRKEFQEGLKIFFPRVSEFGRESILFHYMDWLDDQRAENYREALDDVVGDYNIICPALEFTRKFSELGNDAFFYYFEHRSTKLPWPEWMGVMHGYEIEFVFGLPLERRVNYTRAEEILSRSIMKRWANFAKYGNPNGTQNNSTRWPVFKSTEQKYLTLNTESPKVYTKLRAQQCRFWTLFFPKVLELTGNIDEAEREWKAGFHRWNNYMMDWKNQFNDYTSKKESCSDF
Excerpt: as §2, §3, §4

[6] = biological target: T3, COX-2 (Homo sapiens, UniProt P35354); assay: biochemical
T3 sequence (P35354 18-604): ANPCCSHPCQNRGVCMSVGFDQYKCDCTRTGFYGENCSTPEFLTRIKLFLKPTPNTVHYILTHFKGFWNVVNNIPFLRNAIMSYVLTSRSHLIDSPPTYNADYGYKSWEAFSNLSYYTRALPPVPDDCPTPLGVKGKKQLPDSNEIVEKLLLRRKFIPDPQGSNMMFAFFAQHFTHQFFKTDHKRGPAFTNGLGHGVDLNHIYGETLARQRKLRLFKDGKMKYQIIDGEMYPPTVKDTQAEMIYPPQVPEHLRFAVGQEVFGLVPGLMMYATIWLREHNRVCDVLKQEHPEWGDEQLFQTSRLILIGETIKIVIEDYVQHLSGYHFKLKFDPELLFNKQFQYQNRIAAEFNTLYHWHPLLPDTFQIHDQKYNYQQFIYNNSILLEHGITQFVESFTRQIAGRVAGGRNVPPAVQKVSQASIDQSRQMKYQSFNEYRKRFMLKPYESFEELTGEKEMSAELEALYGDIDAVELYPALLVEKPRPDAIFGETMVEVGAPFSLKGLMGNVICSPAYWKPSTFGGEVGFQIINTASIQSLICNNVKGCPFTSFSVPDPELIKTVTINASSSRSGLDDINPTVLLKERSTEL

[7] = tested on: CCl4-induced oxidative stress markers (SOD, CAT, MDA, TP); assay: In-vivo antioxidant markers in CCl4-induced oxidative stress; design: species or system Albino mice; conditions: CCl4 treated mice
Excerpt: as §1
In this assay, the experimental animals were divided into four groups with five animals in each group. Group I was given the corn oil as a vehicle. The remaining three groups ([…]) were given CCl4 in corn oil in a ratio of 1 to 5 (v/v) for the induction of oxidative stress. The two groups were given 5 and 10 mg/kg bw of the isolated flavone for two weeks. One day after the last administration, the animals were given IM zoletil50 (30 mg/kg bw) with xylazine (5 mg/kg bw) for about 10 min to get anesthetized. Afterwards, the blood sample was taken out by cardiac puncture into EDTA-tubes. After the experiments, the animals were euthanized as per the standard procedure. The blood (200 μL) was centrifuged for 10 min at the rate of 3000 rpm. The plasma was used for the biochemical studies. Afterwards, 0.9% of physiological saline was added to the cellular layer to double up the volume. Again, it was centrifuged under the same set of conditions and the upper layer was discarded. The experiments were repeated three times and erythrocytes were isolated. The isolated erythrocytes were stored at a low temperature (−20 °C). The vital organs like kidneys, liver and heart were harvested, washed and weighted.
The RBCs were employed in a cellular model to evaluate the potency of antioxidants to penetrate into the living cells from plasma.
The superoxide dismutase assay was performed as per the reported procedure. […] The reaction was initiated with the addition of adrenaline (0.3 mM, 0.3 mL) to the buffered mixture. This was mixed immediately and was subjected to a spectrophotometer as a sample cuvette. The solution of buffer (2.5 mL), substrate (0.3 mL) and distilled water (0.2 mL) were added in the reference cuvette. The increase in absorbance (480 nm) was monitored for 2.5 min with 30 sec intervals against a blank. The SOD was calculated as per the reported procedure.
The catalase assay on the isolated compound was performed as per the standard protocols. […] To each of these test tubes, potassium dichromate was added. The tubes were heated for 10 min up to 100 °C. The tubes were then allowed to cool down and optical density was measured at 570 nm. The standard curve of concentration vs. absorbance of H2O2 was plotted. Afterwards, haemolysate (1 mL) was diluted and added to the test tube containing H2O2 (2 mL) and phosphate buffer (2.5 mL, 0.01 M having pH 7.0) and were mixed. After every 30 sec, one ml of solution was withdrawn and was transferred to acidified potassium dichromate (2 mL) for 2 min. This was mixed and heated up to 100 °C for 10 min. The solution was then cooled down and optical density was measured (at 570 nm) against the blank. The catalase activity was calculated as per the standard method.
The lipid peroxidation was performed with malondialdehyde assay as per the reported methods. The diluted haemolysate (0.4 mL, 1:10 v/v) was added to the test tube containing acetic acid sodium hydroxide along with thiobarbituric acid, having a volume of 2 mL each. […] The activity was then calculated as per the standard method.
The total proteins assay of the experiment was performed as per the standard method. The diluted haemolysate (0.2 mL), bovine albumin (0.2 mL, 2 g/dl), distilled water (2 mL) and working reagent 1 mL (CuSO4 with NaK one part and Na2CO3 with NaOH 100 parts) were added in different test tubes. This was mixed and incubated at room temperature for 10 min. […] The absorbance was measured at 570 nm against the blank.

[8] = Acute toxicity; conditions: mice, 25-2000 mg/kg b. wt, monitored 3 days
Excerpt: as §1

[9] = tested on: 5-LOX; conditions: read-out: IC50 5-LOX
Experimental: Using an established procedure, the 5-lipoxygenase activity was performed. […] Afterwards, the 5-lipoxygenase solution (10,000 Unit/mL) was prepared. Linoleic acid (80 Mm) was the substrate used for the 5-LOX assay. We also prepared phosphate buffer (50 Mm) with PH 6.3. WE dissolved the various concentrations of the compound in each 0.25 mL of phosphate buffer, then added 0.25 mL of lipoxygenase enzyme to it and incubated it at 25 °C for 5 min. […] We repeated this experiment three times. The standard drug used was Zileuton [36]. By using the following equation, percent inhibition was calculated: Percent inhibition=Absorbance of control−absorbance of sample/Absorbance of control×100

[10] = biological target: T4, Human recombinant MAO-B (Homo sapiens, UniProt P27338); assay: MAO-B inhibition assay (Amplex Red)
T4 sequence (P27338 1-520): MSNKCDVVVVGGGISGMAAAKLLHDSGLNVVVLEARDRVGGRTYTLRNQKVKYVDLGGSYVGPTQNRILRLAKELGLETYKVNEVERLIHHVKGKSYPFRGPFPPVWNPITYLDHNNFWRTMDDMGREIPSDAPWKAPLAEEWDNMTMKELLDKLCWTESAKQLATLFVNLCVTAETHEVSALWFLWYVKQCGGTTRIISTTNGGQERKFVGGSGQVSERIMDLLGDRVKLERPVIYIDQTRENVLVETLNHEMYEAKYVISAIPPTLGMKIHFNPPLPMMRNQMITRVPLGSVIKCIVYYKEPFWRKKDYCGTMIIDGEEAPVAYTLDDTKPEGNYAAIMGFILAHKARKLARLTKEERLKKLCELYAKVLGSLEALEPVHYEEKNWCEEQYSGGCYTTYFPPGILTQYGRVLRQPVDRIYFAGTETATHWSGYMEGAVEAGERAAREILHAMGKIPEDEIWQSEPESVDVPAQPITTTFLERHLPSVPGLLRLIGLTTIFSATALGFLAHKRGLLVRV
Experimental: Human recombinant MAO-B enzymes used in this assay were obtained from insect cells. The substrate used for MAO-B enzyme is benzylamine hydrochloride. For all the enzymes reactions, as well as for dilutions sodium phosphate buffer (0.05 M), a PH of 7.4 is used. […] The activity of the test compound hMAO-B assay is determined by calculating its effect on H2O2 production from benzylamine while using an Amplex Red MAO assay kit (Invitrogen). In this assay, a volume of 0.1 mL sodium phosphate buffer (0.05 M) with a PH of 7.4, which contains different concentrations of the test compound (reference inhibitors or new compound) and a sufficient quantity of recombinant hMAO-B (0.5 μL, 71 Unit/mg) is incubated at 37 °C for 1 h in a 96-well plate. After incubating, the reaction was initiated by the addition of (final concentration) 200 μM Amplex Red reagent, 1 mM benzylamine hydrochloride and 1 Unit/mL horseradish peroxidase. The H2O2 production, and finally resorufin, was measured in a multi-detection microplate fluorescence reader (TECAN) at 37 °C and with an absorbance of 570 nm. […] Then, specific fluorescence absorbance was determined after subtracting the background activity, measured from the vials which contains all the components except hMAO-B, and was replaced by buffer solution [34].

C[C@H]1O[C@H](O[C@H]2[C@H](O)[C@@H](O)[C@@H](O[C@H]3[C@H](O)[C@@H](O)C(O)O[C@@H]3CO)O[C@@H]2CO)[C@H](O)[C@@H](O)[C@@H]1N[C@H]1C=C(CO)[C@@H](O)[C@H](O)[C@H]1O (some centres unmarked) [Acarbose, reference compound]
IC50 [1]: 16000 nM
IC50 [2]: 12700 nM

CC(=O)Oc1ccccc1C(=O)O [Aspirin, reference compound]
percent inhibition of paw edema ([3]; fifth h): 57.64%
percent inhibition of paw edema ([3]; first hour): 47.54%
percent inhibition of paw edema ([3]; fourth h): 56.92%
percent inhibition of paw edema ([3]; second hour): 54.63%
percent inhibition of paw edema ([3]; third h): 53.26%

COc1ccc(-c2oc3cc(O)ccc3c(=O)c2O)cc1OC [Isolated flavone, 2-(3,4-dimethoxyphenyl)-3,7-dihydroxy-4H-chromen-4-one]
IC50 [4]: 1370 ± 10 nM
IC50 [5]: 950 ± 40 nM
SI [5]: 1.44
IC50 [6]: 380 ± 120 nM
SI (COX-2 selectivity) [6]: 18.70
IC50 [1]: 44300 nM
percent inhibition of paw edema ([3]; fifth h): 45%
percent inhibition of paw edema ([3]; first hour): 45%
percent inhibition of paw edema ([3]; fourth h): 49%
percent inhibition of paw edema ([3]; second hour): 47%
percent inhibition of paw edema ([3]; third h): 42%
MDA blood levels ([7]; 5 mg/kg for two weeks): 1.15 ± 0.05 µmol/L
SOD blood levels (second mention) ([7]; 5 mg/kg for two weeks): 0.12 ± 0.02 UL/mg
SOD levels ([7]; 5 mg/kg for two weeks): 8.52 ± 0.51 UL/mg
MDA blood levels ([7]; 10 mg/kg for two weeks): 1.05 ± 0.03 µmol/L
SOD blood levels (second mention) ([7]; 10 mg/kg for two weeks): 0.12 ± 0.32 UL/mg
SOD levels ([7]; 10 mg/kg for two weeks): 9.58 ± 0.41 UL/mg
TP levels ([7]; treated groups versus CCl4 group): significantly changed
safety in animals (acute toxicity) [8]: safe
IC50 [9]: 840 ± 130 nM
IC50 [2]: 33400 nM
IC50 [10]: 140 ± 10 nM
